Measured values published in patent US11524966B1 (Valo Early Discovery, Inc., priority 2017, dated 2022).

Molecular target: T1, USP28 (His-tagged USP28-FL-mammalian) (Homo sapiens, UniProt Q96RU2)
T1 construct: Expression of USP28 (1-1077)-TEV-6*His (pTT5 vector); made in house; host or cells: Expi293f cells (pTT5 vector)
T1 sequence (Q96RU2 1-1077): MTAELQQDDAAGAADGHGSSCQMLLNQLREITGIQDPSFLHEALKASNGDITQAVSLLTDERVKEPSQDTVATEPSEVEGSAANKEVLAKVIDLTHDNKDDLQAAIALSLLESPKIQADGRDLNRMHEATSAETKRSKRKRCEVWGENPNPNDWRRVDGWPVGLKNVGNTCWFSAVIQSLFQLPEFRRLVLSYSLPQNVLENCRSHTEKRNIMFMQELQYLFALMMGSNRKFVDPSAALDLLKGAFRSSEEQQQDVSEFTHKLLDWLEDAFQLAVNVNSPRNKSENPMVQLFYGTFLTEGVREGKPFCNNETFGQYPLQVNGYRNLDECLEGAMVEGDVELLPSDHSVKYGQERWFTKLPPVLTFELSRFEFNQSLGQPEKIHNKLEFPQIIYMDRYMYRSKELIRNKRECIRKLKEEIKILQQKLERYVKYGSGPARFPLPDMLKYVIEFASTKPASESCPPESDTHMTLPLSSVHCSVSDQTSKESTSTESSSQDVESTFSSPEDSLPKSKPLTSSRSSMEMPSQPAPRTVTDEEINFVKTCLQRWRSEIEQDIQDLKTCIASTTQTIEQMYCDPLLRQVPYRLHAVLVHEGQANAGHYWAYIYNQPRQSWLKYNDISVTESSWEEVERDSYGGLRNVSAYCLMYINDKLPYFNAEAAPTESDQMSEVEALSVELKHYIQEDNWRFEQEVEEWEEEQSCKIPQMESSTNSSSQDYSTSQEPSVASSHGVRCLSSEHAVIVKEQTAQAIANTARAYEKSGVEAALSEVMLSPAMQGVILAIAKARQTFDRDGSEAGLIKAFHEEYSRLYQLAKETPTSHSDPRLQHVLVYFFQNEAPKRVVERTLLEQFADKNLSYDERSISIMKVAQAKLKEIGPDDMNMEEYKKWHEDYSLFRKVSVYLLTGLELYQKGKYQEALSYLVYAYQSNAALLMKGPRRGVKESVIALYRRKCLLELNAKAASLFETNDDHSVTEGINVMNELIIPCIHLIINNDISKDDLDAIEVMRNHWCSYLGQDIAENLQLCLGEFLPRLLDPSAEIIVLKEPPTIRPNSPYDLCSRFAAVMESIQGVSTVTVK
Assay: Ubiquitin-Rhodamine 110 Assay for USP28 Activity, Example A-1(a)
Type: biochemical
Settings: Ubiquitin-Rhodamine 110 assay, Example A-1(a); read-out: USP28 A-1(a) IC50 range
Method in brief: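 Full-length His-tagged USP28 (1-1077, Expi293F-expressed; […]) was preincubated 30 min with compound (25 μM–1.3 nM, 10-point 3-fold) in 20 mM Tris-HCl pH 8.0, 3 mM BME, 0.03% BGG, 0.01% Triton X-100. Ub-Rh110 (25 nM) was then added for 45 min at room temperature, stopped with citric acid, and read by fluorescence (485/535 nm).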

Q: With O=C(N[C@H]1COc2cc(N3CCNCC3)ccc2C1)c1ccc(NCc2ccc3c(c2)CCO3)nc1 [Example 472, (R)-6-(((2,3-dihydrobenzofuran-5-yl)methyl)amino)-N-(7-(piperazin-1-yl)chroman-3-yl)nicotinamide] as the compound, how does the IC50 read?
A: The IC50 was 200 to 2000 nM.
